Reference: patent US10981957B2, “Peptides having antimicrobial activity and new enzyme capable of converting L-configured residue in D-configured amino acid in a peptide” (INSTITUT NATIONAL DE RECHERCHE POUR L'AGRICULTURE, …, priority 2015, dated 2021)
Like-named read-outs stand apart in the source and are kept apart here. Square brackets hold non-standard residues; d marks the D form. Ends that are not written are not given here. Peptide text beside a SMILES is read from it. d(aIle) = CC[C@H](C)[C@@H](N)C(=O)O

How the values were obtained:
Streptococcus agalactiae = assay: Inhibition assay on liquid medium, Streptococcus agalactiae in BHI medium; assay type: cell-based; settings: peptide at 100 μM; FIG. 12
Procedure: (§1) FIG. 12—Growth of Streptococcus agalactiae in liquid BHI medium in the presence of YydF33-49 (a), YydF33_49AA (b) (SEQ ID NO: 66), YydF33_49VV (c) (SEQ ID NO: 67), YydF33_49II (d) (SEQ ID NO: 68), Peptide-SA1 (e) (SEQ Ill NO: 62), Peptide-SA2 (f) (SEQ ID NO: 63), Peptide-SE (g) (SEQ ID NO: 64) or Peptide-SP (h) (SEQ ID NO: 65) at 100 μM. In bold, epimerized residues.
(§2) Inhibition Assay on Liquid Medium
(§3) An overnight culture of the bacterial strain to be assayed was freshly inoculated to sterile LB liquid medium. After 4 hours of bacterial growth at 37° C., the medium was diluted to 1/10,000 and inoculated into sterile liquid LB or BHI medium. Peptide solution was added ( 1/100) to a final concentration ranging from 0.01 to 100 μM and OD at 600 nm was recorded continuously using a Tecan microplate reader (Infinite® 200 PRO series).

B. subtilis [1] = assay type: cell-based, Bacillus subtilis; settings: for Growth of B. subtilis in liquid LB medium: OD at 600 nm, FIG. 5B, FIG. 8a
Text: (§4) FIG. 5—Activity of YydF18-49 of YydG. (FIG. 5A) Plate growth inhibition assay of B. subtilis in the presence of YydF18-49 or the epimierized product YydFb. (FIG. 5B) Growth of Bacillus subtilis in LB medium in the absence of peptide (□) or in the presence of the YydF18-49 peptide with a free C-terminus: Ac-[…] (SEQ ID No 20) containing either no modification (▪), a D-allo-lle (♦), a D-Val (⋄) or two-epimerized residues: Ac-GLLDESQKLAKVNDLWYF{d-V}KSKENRW{d-I}LGSGH (SEQ ID No 20) (▴). The OD values are the means of 3 independent cultures.
FIG. 8—(A) Growth of B. subtilis in liquid LB medium in the presence of YydF33-49 or YydF33-49DD. B. subtilis was grown in LB medium alone (♦), in the presence of YydF33-49 (□) (SEQ ID NO: 76, top) or YydF33-49DD (▪) (SEQ ID NO: 75, bottom). Each measurement is the mean of three growth experiments with the SD indicated. The epimerized residues are in black. (b) Growth ratio of B. subtilis in presence of YydF18-49 (100 μM) or YydF18-49DD (100, 10 or 1 μM). Ratios were determined by comparison with growth in the absence of peptide. (c) Growth ratio of B. subtilis in presence of YydF33-49 or YydF33-49DD (100, 10, 1, 0.1 or 0.01 μM). Ratios were determined by comparison with bacterial growth in the absence of peptide.
FIG. 9—Growth of B. subtilis in liquid LB medium in the presence of YydF18-49 (□) or after addition (arrow) of the YydF18-49DD (▪) after 3 hours of growth. Each measurement is the mean of three growth experiments with the SD indicated.
as §1, with “10—Growth” for “12—Growth”, “B. subtilis” for “Streptococcus agalactiae”, “LB” for “BHI”, “[…]” for “YydF33-49”, “YydF33_49vv” for “YydF33_49VV”, “ID” for “Ill”
as §2, §3

Enterococcus faecalis = assay: Inhibition assay on liquid medium, Enterococcus faecalis in BHI medium; assay type: cell-based; settings: peptide at 100 μM; FIG. 11
Procedure: as §1, with “11—Growth” for “12—Growth”, “Enterococcus faecalis” for “Streptococcus agalactiae”, “ID” for “Ill”
as §2, §3

B. subtilis [2] = assay: Inhibition assay on solid medium (plate growth inhibition assay); assay type: cell-based, Bacillus subtilis; settings: 200 μg of peptide spotted, 37° C., FIG. 5A
Text: as §4
Inhibition Assay on Solid Medium
An overnight culture of the bacterial strain to be assayed was freshly inoculated to sterile BHI liquid medium. After 4 hours of bacterial growth at 37° C., the medium was diluted to 1/1000 and inoculated into a soft agarose medium pre-heated at 42° C. The agarose medium containing bacteria was overlaid on a previously jellified sterile BHI agarose layer. 200 μg of peptide was spotted onto the plate and bacterial growth proceeded at 37° C.

Row | Molecule | Growth of Streptococcus agalactiae in liquid BHI medium (Streptococcus agalactiae) | Growth of B. subtilis in liquid LB medium (B. subtilis [1]) | Growth of Enterococcus faecalis in liquid BHI medium (Enterococcus faecalis) | also measured
1 | CC[C@H](C)[C@@H](NC(=O)[C@H](Cc1c[nH]c2ccccc12)NC(=O)[C@H](CCCNC(=N)N)NC(=O)[C@H](CC(N)=O)NC(=O)[C@H](CCC(=O)O)NC(=O)[C@H](CCCCN)NC(=O)[C@H](CO)NC(=O)[C@H](CCCCN)NC(=O)[C@H](NC(=O)[C@H](Cc1ccccc1)NC(=O)[C@H](Cc1ccc(O)cc1)NC(=O)[C@@H](N)Cc1c[nH]c2ccccc12)C(C)C)C(=O)N[C@@H](CC(C)C)C(=O)NCC(=O)N[C@@H](CO)C(=O)NCC(=O)N[C@@H](Cc1c[nH]cn1)C(=O)O [YydF33-49DD] (H-WYF[dV]KSKENRW[d(aIle)]LGSGH-OH; N-terminus and C-terminus assumed) | inhibited | inhibit bacterial growth |  | MIC (B. subtilis [1]): < 1 µM
2 | WYFAKSKENRWALGSGH (YydF33_49AA) | inhibited |  | totally inhibited | 
3 | WYFVKSKENRWVLGSGH (also: epimerized D-residues, positions not given here) [YydF33-49VV] | inhibited |  |  | 
4 | WYFVRNSKNRWVAGSAH (Peptide-SA2) | inhibitors |  | significantly delayed | 
5 | WYFVKSKENRWILGSGH [YydF33-49] |  | Only the YYdF33-49DD peptide proved to inhibit bacterial growth |  | 
6 | Ac-GLLDESQKLAKVNDLWYFVKSKENRWILGSGH [YydF18-49] |  |  |  | inhibition growth of B. subtilis (plate growth inhibition assay) (B. subtilis [2]): devoid of activity; cell density after addition of peptide at mid-exponential phase (B. subtilis [1]; B. subtilis, liquid LB medium, peptide added after 3 hours of growth, FIG. 9): a clear slow down followed by a decrease of the cell density
7 | WYFVRSSKNRWVAGSAH (Peptide-SA1) | inhibitors |  | significantly delayed | 
8 | Ac-GLLDESQKLAKVNDLWYF{d-V}KSKENRW{d-I}LGSGH [YydF18-49DD] |  | bacterial growth inhibition |  | inhibition growth of B. subtilis (plate growth inhibition assay) (B. subtilis [2]): strong inhibition growth; Growth of B. subtilis in liquid LB medium (B. subtilis [1]; listed as epimerized peptide): strong and persistent inhibition
9 | WYFVKSKQNRWVVGSGH (Peptide-SE) | inhibitors |  | totally inhibited | 
10 | WYFIKSKENRWILGSGH (also: epimerized D-residues, positions not given here) [YydF33-49II] | not |  |  | 
